Data from US20260062422A1 (Halda Therapeutics OpCo, Inc., priority 2022, published 2026).

Key:
VCaP cells = experiment: Cellular growth inhibition assay for VCaP cells, CellTiter-Glo; type: cell-based, human; conditions: 72 hours treatment, CellTiter-Glo 2.0
Procedure: VCaP cells were purchased from American Type Cell Culture (ATCC Cat #CRL2876) and then seeded on poly-D-lysine coated, black clear-bottom 384-well plates at 5000/well in 25 μL Dulbecco's Modified Eagle Medium (DMEM) supplemented with 10% w/w Fetal bovine serum (FBS) and 1% w/w Pen-Strep. Pen-Strep is a commercially available mixture of penicillin G and streptomycin, which is used in mammalian cell culture media to prevent bacterial contamination. Dulbecco's Modified Eagle Medium (DMEM) supplemented with 10% w/w fetal bovine serum (FBS) and 1% w/w Pen-Strep is herein referred to as Treatment Medium. Following seeding of cells in the plates, the plates were spun at 300×g for 30 seconds, then equilibrated to room temperature for 30 minutes, and then deposited in a humidified tissue culture incubator maintained at 37° C. with 5% CO2.
(§1) At 24 hours after seeding of the cells, dilutions of test compound were prepared in DMSO and dissolved in Treatment Medium, to achieve a final DMSO concentration of 0.5% w/w, thereby providing the Test Compound Solution. A 25 μL aliquot of the Test Compound Solution was added to cells in the well plates. An equal volume of a solution containing DMSO and Treatment Medium was used as a negative control. Following treatment of cells with Test Compound Solution or said equal volume of a solution containing DMSO and Treatment Medium, the plates were spun at 300×g for 30 seconds, and then left in an incubator for 72 hours.
(§2) At the end of the treatment duration, cell viability was quantified with CellTiter-Glo 2.0 reagent (Promega Cat #G9243). For this purpose, plates were equilibrated to room temperature for 30 minutes, and then 25 μL of CellTiter-Glo 2.0 reagent was added to cells in the plate wells. Plates were then agitated on a shaker for two minutes at 500 rpm and subsequently incubated at room temperature for 10 minutes. Following incubation, the plates were spun at 3000×g for 30 seconds, then sealed with an optical adhesive cover, and luminescence readings were measured with an EnVision Plate Reader.
(§3) Data was normalized using zero luminescence for baseline. A four-parameter non-linear regression curve fit was applied to dose-response data in GraphPad Prism data analysis software to determine the half-maximal growth inhibitory concentration (GI50) for each test compound.

T47D cells = experiment: Cellular growth inhibition assay for T47D cells, CellTiter-Glo; type: cell-based, human; conditions: 72 hours treatment, CellTiter-Glo 2.0 cell viability
Procedure: T47D cells were purchased from American Type Cell Culture (ATCC Cat #HTB-133) and then seeded on poly-D-lysine coated, black clear-bottom 384-well plates at 3000/well in 25 μL Dulbecco's Modified Eagle Medium (DMEM) supplemented with 10% w/w Fetal bovine serum (FBS), 0.2 units/mL recombinant human insulin (Gibco Cat #12585014), and 1% w/w Pen-Strep. Pen-Strep is a commercially available mixture of penicillin G and streptomycin, which is used in mammalian cell culture media to prevent bacterial contamination. Dulbecco's Modified Eagle Medium (DMEM) supplemented with 10% w/w fetal bovine serum (FBS), 0.2 units/mL recombinant human insulin, and 1% w/w Pen-Strep is herein referred to as Treatment Medium. Following seeding of cells in the plates, the plates were spun at 300×g for 30 seconds, then equilibrated to room temperature for 30 minutes, and then deposited in a humidified tissue culture incubator maintained at 37° C. with 5% CO2.
as §1
as §2, with “Reader (Perkin Elmer).” for “Reader.”
as §3

Structure (SMILES) | GI50 (VCaP cells; Homo sapiens, VCaP, 72 h) [nM] | GI50 (T47D cells; Homo sapiens, T47D, 72 h) [nM] | GI50 (VCaP cells) [nM] | GI50 (T47D cells) [nM]
Cc1sc2c(c1C)C(c1ccc(C[C@H]3CC[C@@H]4CN(c5ncc(C(=O)N[C@H]6C(C)(C)[C@H](Oc7ccc(C#N)c(Cl)c7)C6(C)C)cn5)CCN4C3)cc1)=N[C@@H](Cc1ncco1)c1nnc(C)n1-2 [Compound I-304] | < 500 | > 3000 |  | 
Cc1sc2c(c1C)C(c1ccc(C[C@@H]3CC[C@@H]4CN(c5ncc(C(=O)N[C@H]6C(C)(C)[C@H](Oc7ccc(C#N)c(Cl)c7)C6(C)C)cn5)CCN4C3)cc1)=C[C@@H](Cc1ncco1)c1nnc(C)n1-2 [Compound I-305] | > 3000 | 500 to 1500 |  | 
Cc1sc2c(c1C)C(c1ccc(C[C@@H]3CC[C@@H]4CN(c5ncc(C(=O)N[C@H]6C(C)(C)[C@H](Oc7ccc(C#N)c(Cl)c7)C6(C)C)cn5)CCN4C3)cc1)=N[C@H](Cc1ncco1)c1nnc(C)n1-2 [Compound I-307] | < 500 | < 500 |  | 
Cc1sc2c(c1C)C(c1ccc(C[C@@H]3CC[C@]4(C3)CN(c3ncc(C(=O)N[C@H]5C(C)(C)[C@H](Oc6ccc(C#N)c(Cl)c6)C5(C)C)cn3)CCO4)cc1)=N[C@@H](Cc1ncco1)c1nnc(C)n1-2 [Compound I-308] | > 3000 | > 3000 |  | 
Cc1sc2c(c1C)C(c1ccc(C[C@@H]3CC[C@@]4(C3)CN(c3ncc(C(=O)N[C@H]5C(C)(C)[C@H](Oc6ccc(C#N)c(Cl)c6)C5(C)C)cn3)CCO4)cc1)=N[C@@H](Cc1ncco1)c1nnc(C)n1-2 [Compound I-309] | > 3000 | > 3000 |  | 
Cc1sc2c(c1C)C(c1ccc(C[C@H]3CC[C@]4(C3)CN(c3ncc(C(=O)N[C@H]5C(C)(C)[C@H](Oc6ccc(C#N)c(Cl)c6)C5(C)C)cn3)CCO4)cc1)=N[C@@H](Cc1ncco1)c1nnc(C)n1-2 [Compound I-310] | < 500 | < 500 |  | 
Cc1sc2c(c1C)C(c1ccc(OC3CCN(C4CCN(c5ncc(C(=O)N[C@H]6C(C)(C)[C@H](Oc7ccc(C#N)c(Cl)c7)C6(C)C)cn5)CC4)CC3)cc1)=N[C@@H](Cc1ncco1)c1nnc(C)n1-2 [Compound I-313] | < 500 | < 500 |  | 
Cc1sc2c(c1C)C(c1ccc(N3CCC[C@H](C(=O)N4CCCC4c4ncc(C(=O)N[C@H]5C(C)(C)[C@H](Oc6ccc(C#N)c(Cl)c6)C5(C)C)cn4)C3)cc1)=N[C@H](Cc1ncco1)c1nnc(C)n1-2 (stereo partly drawn) [Compound I-315] | > 3000 | > 3000 |  | 
Cc1sc2c(c1C)C(c1ccc(CNC(=O)Cc3ncc(C(=O)N[C@H]4C(C)(C)[C@H](Oc5ccc(C#N)c(Cl)c5)C4(C)C)cn3)cc1)=N[C@@H](Cc1ncco1)c1nnc(C)n1-2 [Compound I-316] | < 500 | 500 to 1500 |  | 
Cc1sc2c(c1C)C(c1ccc(C(=O)N3CCC[C@@H](Cc4ncc(C(=O)N[C@H]5C(C)(C)[C@H](Oc6ccc(C#N)c(Cl)c6)C5(C)C)cn4)C3)cc1)=N[C@@H](Cc1ncco1)c1nnc(C)n1-2 [Compound I-318] | > 3000 | > 3000 |  | 
Cc1sc2c(c1C)C(c1ccc(C(=O)N3CCC[C@@H](Cc4ncc(C(=O)N[C@H]5C(C)(C)[C@H](Oc6ccc(C#N)c(Cl)c6)C5(C)C)cn4)C3)cc1)=N[C@@H](Cc1ncco1)c1nnc(C)n1-2 [Compound I-319] |  |  | 1500 to 3000 | > 3000
Cc1sc2c(c1C)C(c1ccc(CCC[C@@H]3CCCN(c4ncc(C(=O)N[C@H]5C(C)(C)[C@H](Oc6ccc(C#N)c(Cl)c6)C5(C)C)cn4)C3)cc1)=N[C@@H](Cc1ncco1)c1nnc(C)n1-2 [Compound I-320] | < 500 | < 500 |  | 
Cc1sc2c(c1C)C(c1ccc(CCC[C@H]3CCCN(c4ncc(C(=O)N[C@H]5C(C)(C)[C@H](Oc6ccc(C#N)c(Cl)c6)C5(C)C)cn4)C3)cc1)=N[C@@H](Cc1ncco1)c1nnc(C)n1-2 [Compound I-321] | < 500 | < 500 |  | 
Cc1sc2c(c1C)C(c1ccc(CCO[C@@H]3CCCN(c4ncc(C(=O)N[C@H]5C(C)(C)[C@H](Oc6ccc(C#N)c(Cl)c6)C5(C)C)cn4)C3)cc1)=N[C@@H](Cc1ncco1)c1nnc(C)n1-2 [Compound I-322] | < 500 | < 500 |  | 
Cc1sc2c(c1C)C(c1ccc(CCO[C@H]3CCCN(c4ncc(C(=O)N[C@H]5C(C)(C)[C@H](Oc6ccc(C#N)c(Cl)c6)C5(C)C)cn4)C3)cc1)=N[C@@H](Cc1ncco1)c1nnc(C)n1-2 [Compound I-323] | < 500 | < 500 |  | 
Cc1sc2c(c1C)C(c1ccc(C#CC3CC(Cc4ncc(C(=O)N[C@H]5C(C)(C)[C@H](Oc6ccc(C#N)c(Cl)c6)C5(C)C)cn4)C3)cc1)=NC(Cc1ncco1)c1nnc(C)n1-2 (stereo partly drawn) [Compound I-561] |  |  |  | < 500
Cc1sc2c(c1C)C(c1ccc(N3CC(CC4CN(c5ncc(C(=O)N[C@H]6C(C)(C)[C@H](Oc7ccc(C#N)c(Cl)c7)C6(C)C)cn5)C4)C3)cc1)=N[C@@H](Cc1ncco1)c1nnc(C)n1-2 [Compound I-562] |  | < 500 |  | 
Cc1sc2c(c1C)C(c1ccc(N3CC(CC4CN(c5cnc(C(=O)N[C@H]6C(C)(C)[C@H](Oc7ccc(C#N)c(Cl)c7)C6(C)C)cn5)C4)C3)cc1)=N[C@@H](Cc1ncco1)c1nnc(C)n1-2 [Compound I-563] |  | < 500 |  | 
Cc1sc2c(c1C)C(c1ccc(N3CC(C4CCN(c5ccc(C(=O)N[C@H]6C(C)(C)[C@H](Oc7ccc(C#N)c(Cl)c7)C6(C)C)nc5)CC4)C3)cc1)=N[C@@H](Cc1ncco1)c1nnc(C)n1-2 [Compound I-564] |  | < 500 |  | 
Cc1sc2c(c1C)C(c1ccc(N3CC(CC4CCN(c5ncc(C(=O)N[C@H]6C(C)(C)[C@H](Oc7ccc(C#N)c(Cl)c7)C6(C)C)cn5)CC4)C3)cc1)=N[C@@H](Cc1ncco1)c1nnc(C)n1-2 [Compound I-574] |  | < 500 |  | 
Cc1sc2c(c1C)C(c1ccc(N3CC(CC4CCN(c5cnc(C(=O)N[C@H]6C(C)(C)[C@H](Oc7ccc(C#N)c(Cl)c7)C6(C)C)cn5)CC4)C3)cc1)=N[C@@H](Cc1ncco1)c1nnc(C)n1-2 [Compound I-575] |  | < 500 |  | 
Cc1sc2c(c1C)C(c1ccc(N3CC(C4CCCC(Cc5ncc(C(=O)N[C@H]6C(C)(C)[C@H](Oc7ccc(C#N)c(Cl)c7)C6(C)C)cn5)C4)C3)cc1)=N[C@@H](Cc1ncco1)c1nnc(C)n1-2 (stereo partly drawn) [Compound I-579] |  | < 500 |  | 
Cc1sc2c(c1C)C(c1ccc(N3CC(C4CCCC(Cc5ncc(C(=O)N[C@H]6C(C)(C)[C@H](Oc7ccc(C#N)c(Cl)c7)C6(C)C)cn5)C4)C3)cc1)=N[C@@H](Cc1ncco1)c1nnc(C)n1-2 (stereo partly drawn) [Compound I-580] |  |  |  | < 500
Cc1sc2c(c1C)C(c1ccc(N3CC(C4CCCC(Cc5ncc(C(=O)N[C@H]6C(C)(C)[C@H](Oc7ccc(C#N)c(Cl)c7)C6(C)C)cn5)C4)C3)cc1)=N[C@@H](Cc1ncco1)c1nnc(C)n1-2 (stereo partly drawn) [Compound I-581] |  |  |  | < 500
Cc1sc2c(c1C)C(c1ccc(N3CC(C4CCCC(Cc5ncc(C(=O)N[C@H]6C(C)(C)[C@H](Oc7ccc(C#N)c(Cl)c7)C6(C)C)cn5)C4)C3)cc1)=N[C@@H](Cc1ncco1)c1nnc(C)n1-2 (stereo partly drawn) [Compound I-582] |  |  |  | < 500
Cc1sc2c(c1C)C(c1ccc(OC[C@@H]3CCCN(c4cnc(C(=O)N[C@H]5C(C)(C)[C@H](Oc6ccc(C#N)c(Cl)c6)C5(C)C)cn4)C3)cc1)=N[C@@H](Cc1ncco1)c1nnc(C)n1-2 [Compound I-591] |  | < 500 |  | 
Cc1sc2c(c1C)C(c1ccc(OC3CC4(C3)CC3(CCN(c5ncc(C(=O)N(C)[C@H]6C(C)(C)[C@H](Oc7ccc(C#N)c(Cl)c7)C6(C)C)cn5)CC3)C4)cc1)=N[C@@H](Cc1ncco1)c1nnc(C)n1-2 [Compound I-592] |  | < 500 |  | 
